Data on three compounds can be found in EPA's ToxRefDB 2.

In series [1] the test system is rat. To be noted: Multigenerational reproductive toxicity study, sprague dawley, Oral, Feed, dose end: 2 generation.
The next series relates to rabbit. The note with it: Prenatal developmental toxicity study, chinchilla, Oral, Gavage/Intubation, dose end: 18 GD.
Series [2] has as its system rat. The note with it: Combined chronic toxicity/carcinogenicity, fischer, Oral, Feed, dose end: 24 month.
In series [3] the test system is mouse. To be noted: Carcinogenicity, cd1, Oral, Feed, dose end: 87 week, group: systemic.
The test system of series [4] is mouse. The note with it: Combined chronic toxicity/carcinogenicity, cd1, Oral, Feed, dose end: 78 week, group: systemic.
In series [5] the test system is dog. The note with it: Chronic toxicity, beagle, Oral, Feed, dose end: 52 week, group: systemic.
The test system of series [6] is rat. To be noted: Combined chronic toxicity/carcinogenicity; sprague dawley; Oral; Feed; dose end: 24 month; group: systemic; systemic / in life observation / clinical signs / urine staining - perineum.
Series [7] concerns dog. To be noted: Chronic toxicity; beagle; Oral; Capsule; dose end: 52 week; group: systemic; systemic / clinical chemistry / alanine aminotransferase (alt/sgpt) / alanine aminotransferase (alt/sgpt) + systemic / in life observation….
Where [8] appears, read: group: cholinesterase, cholinesterase / cholinesterase / cholinesterase / plasma cholinesterase (che).
Setting [9] is: group: offspring, developmental / offspring survival late / lactation index / lactation index.
[10] abbreviates: group: offspring, developmental / offspring survival late / lactation index / lactation index + systemic / in life observation / body weight / offspring (pup….
Where [11] appears, read: group: parental, systemic / in life observation / body weight / body weight.
Where [12] appears, read: group: parental, systemic / organ weight / ovary / relative to body weight.
Setting [13] is: group: developmental, developmental / developmental malformation / bone / absent + developmental / developmental malformation / bone / fused + developmental / ….
Where [14] appears, read: group: maternal, systemic / in life observation / body weight / body weight gain + systemic / in life observation / clinical signs / ataxia + systemic / in ….
Where [15] appears, read: group: cholinesterase, cholinesterase / cholinesterase / cholinesterase / brain cholinesterase (che) + cholinesterase / cholinesterase / cholinesterase / ….
Setting [16] is: group: systemic, systemic / hematology / mean corpuscular (cell) volume (mcv) / mean corpuscular (cell) volume (mcv) + systemic / in life observation / body ….
[17] abbreviates: systemic / organ weight / brain / absolute.
Setting [18] is: systemic / organ weight / brain / absolute + systemic / in life observation / body weight / body weight + systemic / in life observation / ….
Where [19] appears, read: systemic / in life observation / body weight / body weight gain + systemic / in life observation / body weight / body weight + systemic / ….
Setting [20] is: systemic / clinical chemistry / alanine aminotransferase (alt/sgpt) / alanine aminotransferase (alt/sgpt) + systemic / clinical chemistry / ….
Where [21] appears, read: systemic / organ weight / liver / absolute.

On to `CCOP(=O)(NC(C)C)Oc1ccc(SC)c(C)c1` (stereo not drawn) [Fenamiphos], for which the LEL in the series with rat [1] (setting [8]) is 0.19 mg/kg/day; in the series on rat [1] (setting [9]), 0.65 mg/kg/day; in the series on rat [1] (setting [12]) it was 0.2 mg/kg/day; in the series with rabbit (setting [13]), 2.5 mg/kg/day; in the series on rabbit (setting [14]) it was 2.5 mg/kg/day; in the series with rat [2] (setting [15]), 0.098 mg/kg/day. Moreover, the LEL is 2.45 mg/kg/day in the series on rat [2] (setting [16]) and 0.3 mg/kg/day with mouse [3] (setting [17]). For the same compound, the LOAEL is 0.19 mg/kg/day in the series on rat [1] (setting [8]); 0.65 mg/kg/day with rat [1] (setting [9]); > 2.94 mg/kg/day with rat [1] (setting [11]); 2.5 mg/kg/day with rabbit (setting [13]); 2.5 mg/kg/day in the series on rabbit (setting [14]); 0.098 mg/kg/day in the series with rat [2] (setting [15]). The LOAEL with rat [2] (setting [16]) was > 2.45 mg/kg/day; in the series on mouse [3] (setting [18]) it was > 7.5 mg/kg/day. In addition, the NEL in the series on rat [1] (setting [8]) was < 0.19 mg/kg/day; in the series with rat [1] (setting [10]), 0.17 mg/kg/day; with rat [1] (setting [12]) it was < 0.2 mg/kg/day; in the series on rabbit (setting [13]), 0.5 mg/kg/day; in the series on rabbit (setting [14]) it was 0.5 mg/kg/day; in the series on rat [2] (setting [15]), < 0.098 mg/kg/day. The NEL was 0.464 mg/kg/day with rat [2] (setting [16]) and < 0.3 mg/kg/day in the series on mouse [3] (setting [17]). Further, the NOAEL was < 0.19 mg/kg/day in the series with rat [1] (setting [8]); 0.17 mg/kg/day in the series with rat [1] (setting [10]); ≥ 2.94 mg/kg/day in the series on rat [1] (setting [11]); 0.5 mg/kg/day in the series with rabbit (setting [13]); 0.5 mg/kg/day in the series on rabbit (setting [14]); < 0.098 mg/kg/day with rat [2] (setting [15]). For the same compound, the NOAEL was ≥ 2.45 mg/kg/day in the series with rat [2] (setting [16]) and ≥ 7.5 mg/kg/day in the series on mouse [3] (setting [18]).

For `CC(C)C1(C)N=C(c2nc3ccccc3cc2C(=O)O)NC1=O` (stereo not drawn) [Imazaquin], the LOAEL in the series on mouse [4] (systemic / in life observation / body weight / body weight gain) was 600 mg/kg/day; with dog [5] (setting [20]) it was 125 mg/kg/day; with rat [6], > 500 mg/kg/day. For the same compound, the results for the LEL in the series with mouse [4] (setting [19]), in the series on dog [5] (setting [21]) and in the series on rat [6] were 600 mg/kg/day, 5 mg/kg/day and 500 mg/kg/day, respectively. Besides, the values for the NEL with mouse [4] (setting [19]), in the series with dog [5] (setting [21]) and with rat [6] were 150 mg/kg/day, < 5 mg/kg/day and 250 mg/kg/day, respectively. The NOAEL with mouse [4] (setting [19]) was 150 mg/kg/day; in the series with dog [5] (setting [20]), 25 mg/kg/day; in the series on rat [6], ≥ 500 mg/kg/day.

As for `CNC(=O)N(C)c1nnc(C(C)(C)C)s1` [Tebuthiuron], in the series on dog [7], the LEL came out at 50 mg/kg/day, the LOAEL worked out at 50 mg/kg/day, the NEL was 25 mg/kg/day and the NOAEL was determined as 25 mg/kg/day.

In general, LOAEL refers to the lowest dose or exposure tested at which an adverse effect was seen. Broadly, the NOAEL is the highest tested level that showed no adverse finding.
